{"source": "ChEMBL document CHEMBL4610105", "about": "“Microketides A and B, Polyketides from a Gorgonian-Derived Microsphaeropsis sp. Fungus” (J Nat Prod, 2020)", "key": {"[1]": {"tested_on": "Bacillus subtilis", "assay": "Antibacterial activity against Bacillus subtilis assessed as reduction in microbial growth after 18 hrs by MTT based broth dilution method", "format": "functional"}, "[2]": {"tested_on": "Bacillus anthracis", "assay": "Antibacterial activity against Bacillus anthracis assessed as reduction in microbial growth after 18 hrs by MTT based broth dilution method", "format": "functional"}, "[3]": {"tested_on": "Bacillus cereus", "assay": "Antibacterial activity against Bacillus cereus assessed as reduction in microbial growth after 18 hrs by MTT based broth dilution method", "format": "functional"}, "[4]": {"tested_on": "Priestia megaterium", "assay": "Antibacterial activity against Bacillus megaterium assessed as reduction in microbial growth after 18 hrs by MTT based broth dilution method", "format": "functional"}, "[5]": {"tested_on": "Klebsiella aerogenes", "assay": "Antibacterial activity against Enterobacter aerogenes assessed as reduction in microbial growth after 18 hrs by MTT based broth dilution method", "format": "functional"}, "[6]": {"tested_on": "Kocuria rhizophila", "assay": "Antibacterial activity against Kocuria rhizophila assessed as reduction in microbial growth after 18 hrs by MTT based broth dilution method", "format": "functional"}, "[7]": {"tested_on": "Micrococcus luteus", "assay": "Antibacterial activity against Micrococcus lysodeikticus assessed as reduction in microbial growth after 18 hrs by MTT based broth dilution method", "format": "functional"}, "[8]": {"tested_on": "Nocardia brasiliensis", "assay": "Antibacterial activity against Nocardia brasiliensis assessed as reduction in microbial growth after 18 hrs by MTT based broth dilution method", "format": "functional"}, "[9]": {"tested_on": "Proteus vulgaris", "assay": "Antibacterial activity against Proteus vulgaris assessed as reduction in microbial growth after 18 hrs by MTT based broth dilution method", "format": "functional"}, "[10]": {"tested_on": "Pseudomonas aeruginosa", "assay": "Antibacterial activity against Pseudomonas aeruginosa assessed as reduction in microbial growth after 18 hrs by MTT based broth dilution method", "format": "functional"}, "[11]": {"tested_on": "Salmonella typhi", "assay": "Antibacterial activity against Salmonella typhi assessed as reduction in microbial growth after 18 hrs by MTT based broth dilution method", "format": "functional, Salmonella enterica subsp. enterica serovar Typhi", "settings": "Salmonella enterica"}, "[12]": {"tested_on": "Salmonella enterica subsp. enterica serovar Paratyphi B", "assay": "Antibacterial activity against Salmonella paratyphi B assessed as reduction in microbial growth after 18 hrs by MTT based broth dilution method", "format": "functional"}, "[13]": {"tested_on": "Shigella dysenteriae", "assay": "Antibacterial activity against Shigella dysenteriae assessed as reduction in microbial growth after 18 hrs by MTT based broth dilution method", "format": "functional"}, "[14]": {"tested_on": "Vibrio parahaemolyticus", "assay": "Antibacterial activity against Vibrio parahaemolyticus assessed as reduction in microbial growth after 18 hrs by MTT based broth dilution method", "format": "functional"}, "[15]": {"tested_on": "Escherichia coli", "assay": "Antibacterial activity against Escherichia coli assessed as reduction in microbial growth after 18 hrs by MTT based broth dilution method", "format": "functional"}, "[16]": {"tested_on": "Candida albicans", "assay": "Antifungal activity against Candida albicans assessed as reduction in microbial growth", "format": "functional"}, "[17]": {"tested_on": "Colletotrichum truncatum", "assay": "Antifungal activity against Colletotrichum truncatum assessed as reduction in microbial growth", "format": "functional"}, "[18]": {"assay": "Antifungal activity against Gloeosporium musarum assessed as reduction in microbial growth", "format": "functional"}, "[19]": {"tested_on": "Pestalotiopsis calabae", "assay": "Antifungal activity against Pestalotia calabae assessed as reduction in microbial growth", "format": "functional"}, "[20]": {"tested_on": "Heterosigma akashiwo", "assay": "Anti-phytoplankton activity against Heterosigma akashiwo after 96 hrs by fluorometric method", "format": "functional, organism-based"}, "[21]": {"tested_on": "Isochrysis galbana", "assay": "Anti-phytoplankton activity against Isochrysis galbana after 96 hrs by fluorometric method", "format": "functional, organism-based"}, "[22]": {"tested_on": "Karenia mikimotoi", "assay": "Anti-phytoplankton activity against Karenia mikimotoi after 96 hrs by fluorometric method", "format": "functional, organism-based"}, "[23]": {"tested_on": "Tetraselmis helgolandica", "assay": "Anti-phytoplankton activity against Platymonas helgolandica after 96 hrs by fluorometric method", "format": "functional, organism-based"}}}
{"smiles": "O=C(O)c1cn(C2CC2)c2cc(N3CCNCC3)c(F)cc2c1=O", "note": "[CIPROFLOXACIN]", "values": [{"measurement": "MIC", "setting": "[1]", "value": 0.09, "unit": "µg/mL"}, {"measurement": "MIC", "setting": "[2]", "value": 0.19, "unit": "µg/mL"}, {"measurement": "MIC", "setting": "[3]", "value": 0.09, "unit": "µg/mL"}, {"measurement": "MIC", "setting": "[4]", "value": 0.19, "unit": "µg/mL"}, {"measurement": "MIC", "setting": "[5]", "value": 0.05, "unit": "µg/mL"}, {"measurement": "MIC", "setting": "[6]", "value": 0.19, "unit": "µg/mL"}, {"measurement": "MIC", "setting": "[7]", "value": 0.19, "unit": "µg/mL"}, {"measurement": "MIC", "setting": "[8]", "value": 0.19, "unit": "µg/mL"}, {"measurement": "MIC", "setting": "[9]", "value": 0.09, "unit": "µg/mL"}, {"measurement": "MIC", "setting": "[10]", "value": 0.19, "unit": "µg/mL"}, {"measurement": "MIC", "setting": "[11]", "value": 0.09, "unit": "µg/mL"}, {"measurement": "MIC", "setting": "[12]", "value": 0.05, "unit": "µg/mL"}, {"measurement": "MIC", "setting": "[13]", "value": 0.19, "unit": "µg/mL"}, {"measurement": "MIC", "setting": "[14]", "value": 0.19, "unit": "µg/mL"}]}
{"smiles": "CC1=C(Cc2c(C)cccc2O)C(=O)[C@@](C)(O)[C@H](O)C1", "values": [{"measurement": "MIC", "setting": "[1]", "value": 1.56, "unit": "µg/mL"}, {"measurement": "MIC", "setting": "[2]", "value": 0.39, "unit": "µg/mL"}, {"measurement": "MIC", "setting": "[3]", "value": 0.39, "unit": "µg/mL"}, {"measurement": "MIC", "setting": "[4]", "value": 0.19, "unit": "µg/mL"}, {"measurement": "MIC", "setting": "[5]", "value": 1.56, "unit": "µg/mL"}, {"measurement": "MIC", "setting": "[15]", "value": 3.13, "unit": "µg/mL"}, {"measurement": "MIC", "setting": "[6]", "value": 0.39, "unit": "µg/mL"}, {"measurement": "MIC", "setting": "[7]", "value": 0.78, "unit": "µg/mL"}, {"measurement": "MIC", "setting": "[8]", "value": 0.39, "unit": "µg/mL"}, {"measurement": "MIC", "setting": "[9]", "value": 1.56, "unit": "µg/mL"}, {"measurement": "MIC", "setting": "[10]", "value": 1.56, "unit": "µg/mL"}, {"measurement": "MIC", "setting": "[11]", "value": 0.19, "unit": "µg/mL"}, {"measurement": "MIC", "setting": "[12]", "value": 0.39, "unit": "µg/mL"}, {"measurement": "MIC", "setting": "[13]", "value": 6.25, "unit": "µg/mL"}, {"measurement": "MIC", "setting": "[14]", "value": 3.13, "unit": "µg/mL"}, {"measurement": "MIC", "setting": "[16]", "value": 3.13, "unit": "µg/mL"}, {"measurement": "MIC", "setting": "[17]", "value": 3.13, "unit": "µg/mL"}, {"measurement": "MIC", "setting": "[18]", "value": 3.13, "unit": "µg/mL"}, {"measurement": "MIC", "setting": "[19]", "value": 3.13, "unit": "µg/mL"}, {"measurement": "EC50", "setting": "[20]", "value": "> 50", "unit": "µg/mL"}, {"measurement": "EC50", "setting": "[21]", "value": "> 50", "unit": "µg/mL"}, {"measurement": "EC50", "setting": "[22]", "value": "> 50", "unit": "µg/mL"}, {"measurement": "EC50", "setting": "[23]", "value": 16.8, "unit": "µg/mL"}]}
{"smiles": "CC1=C(Cc2c(C)cccc2O)C(=O)[C@@](C)(O)[C@@H](O)C1", "values": [{"measurement": "MIC", "setting": "[1]", "value": 0.19, "unit": "µg/mL"}, {"measurement": "MIC", "setting": "[2]", "value": 0.19, "unit": "µg/mL"}, {"measurement": "MIC", "setting": "[3]", "value": 0.19, "unit": "µg/mL"}, {"measurement": "MIC", "setting": "[4]", "value": 0.19, "unit": "µg/mL"}, {"measurement": "MIC", "setting": "[5]", "value": 0.19, "unit": "µg/mL"}, {"measurement": "MIC", "setting": "[15]", "value": 1.56, "unit": "µg/mL"}, {"measurement": "MIC", "setting": "[6]", "value": 0.19, "unit": "µg/mL"}, {"measurement": "MIC", "setting": "[7]", "value": 0.39, "unit": "µg/mL"}, {"measurement": "MIC", "setting": "[8]", "value": 0.19, "unit": "µg/mL"}, {"measurement": "MIC", "setting": "[9]", "value": 0.39, "unit": "µg/mL"}, {"measurement": "MIC", "setting": "[10]", "value": 0.19, "unit": "µg/mL"}, {"measurement": "MIC", "setting": "[11]", "value": 0.19, "unit": "µg/mL"}, {"measurement": "MIC", "setting": "[12]", "value": 0.19, "unit": "µg/mL"}, {"measurement": "MIC", "setting": "[13]", "value": 3.13, "unit": "µg/mL"}, {"measurement": "MIC", "setting": "[14]", "value": 0.39, "unit": "µg/mL"}, {"measurement": "MIC", "setting": "[16]", "value": 1.56, "unit": "µg/mL"}, {"measurement": "MIC", "setting": "[17]", "value": 1.56, "unit": "µg/mL"}, {"measurement": "MIC", "setting": "[18]", "value": 3.13, "unit": "µg/mL"}, {"measurement": "MIC", "setting": "[19]", "value": 1.56, "unit": "µg/mL"}, {"measurement": "EC50", "setting": "[20]", "value": "> 50", "unit": "µg/mL"}, {"measurement": "EC50", "setting": "[21]", "value": "> 50", "unit": "µg/mL"}, {"measurement": "EC50", "setting": "[22]", "value": "> 50", "unit": "µg/mL"}, {"measurement": "EC50", "setting": "[23]", "value": 12.3, "unit": "µg/mL"}]}
{"smiles": "CC(=O)N1CCN(c2ccc(OCC3COC(Cn4ccnc4)(c4ccc(Cl)cc4Cl)O3)cc2)CC1", "note": "(centres undefined) [KETOCONAZOLE]", "values": [{"measurement": "MIC", "setting": "[16]", "value": 0.78, "unit": "µg/mL"}, {"measurement": "MIC", "setting": "[17]", "value": 0.19, "unit": "µg/mL"}, {"measurement": "MIC", "setting": "[18]", "value": 0.39, "unit": "µg/mL"}, {"measurement": "MIC", "setting": "[19]", "value": 0.78, "unit": "µg/mL"}]}
